Measured values as given in patent US8247211B2, “Glycopeptide antibiotics” (American Cyanamid Company, priority 2001, dated 2012).

Tests used:
Experiment in all cases: In vitro antibacterial evaluation: minimum inhibitory concentration (MIC), broth dilution method
Assay type in all cases: cell-based
Conditions in all cases: 18 hours at 35° C.
[1] = tested on: Enterococcus sp.
In short: (§1)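 NCCLS M7-A2 broth dilution with Mueller-Hinton II, testing 64-0.06 μg/mL antibiotic against 5×10^5 CFU/mL inocula. Test strains include recent methicillin-, penicillin- or vancomycin-resistant clinical isolates. MIC is the lowest concentration preventing growth.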

[2] = tested on: Escherichia coli
In short: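 An MIC is reported for each organism as the least concentration giving inhibition, using broth dilution over 64-0.06 μg/mL with a 5×10^5 CFU/mL inoculum.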

[3] = tested on: Staphylococcus sp.
In short: as §1

[4] = tested on: Streptococcus sp.
In short: as §1

Substance: α-O-[(N-Methyl-2-methylpropylamino)carbonyl]-cyclo[glycyl-β-methylphenylalanyl-O-(4-O-hexopyranosylhexopyranosyl)tyrosyl-3-(2-iminoimidazolidin-4-yl)seryl-3-(3-hexopyranosyl-2-iminoimidazolidin-4-yl)serylseryl] [Example 255]
- MIC Enterococcus avium (GC 4558) ([1]; Enterococcus avium (GC 4558)): >0.5 µg/mL
- MIC Enterococcus faecalis (ATCC 29212) ([1]; Enterococcus faecalis (ATCC 29212)): >0.5 µg/mL
- MIC Enterococcus faecalis (GC 2242) ([1]; Enterococcus faecalis (GC 2242)): >0.5 µg/mL
- MIC Enterococcus faecalis (GC 2691) ([1]; Enterococcus faecalis (GC 2691)): >0.5 µg/mL
- MIC Enterococcus faecalis (GC 3059) ([1]; Enterococcus faecalis (GC 3059)): >0.5 µg/mL
- MIC Enterococcus faecalis (GC 4552) ([1]; Enterococcus faecalis (GC 4552)): >0.5 µg/mL
- MIC Enterococcus faecalis (GC 4553) ([1]; Enterococcus faecalis (GC 4553)): >0.5 µg/mL
- MIC Enterococcus faecalis (GC 4554) ([1]; Enterococcus faecalis (GC 4554)): >0.5 µg/mL
- MIC Enterococcus faecalis (GC 6189) ([1]; Enterococcus faecalis (GC 6189)): >0.5 µg/mL
- MIC Enterococcus faecium (GC 2243) ([1]; Enterococcus faecium (GC 2243)): >64 µg/mL
- MIC Enterococcus faecium (GC 4556) ([1]; Enterococcus faecium (GC 4556)): >64 µg/mL
- MIC Enterococcus faecium (GC 4557) ([1]; Enterococcus faecium (GC 4557)): 16 µg/mL
- MIC Enterococcus faecalis (ATCC 29212) ([1]; broth dilution, strain ATCC 29212): >0.5 µg/mL
- MIC Enterococcus faecalis (GC 2242) ([1]; broth dilution, strain GC 2242): >0.5 µg/mL
- MIC Enterococcus faecium (GC 2243) ([1]; broth dilution, strain GC 2243): >64 µg/mL
- MIC Enterococcus faecalis (GC 2691) ([1]; broth dilution, strain GC 2691): >0.5 µg/mL
- MIC Enterococcus faecalis (GC 3059) ([1]; broth dilution, strain GC 3059): >0.5 µg/mL
- MIC Enterococcus faecalis (GC 4552) ([1]; broth dilution, strain GC 4552): >0.5 µg/mL
- MIC Enterococcus faecalis (GC 4553) ([1]; broth dilution, strain GC 4553): >0.5 µg/mL
- MIC Enterococcus faecalis (GC 4554) ([1]; broth dilution, strain GC 4554): >0.5 µg/mL
- MIC Enterococcus faecium (GC 4556) ([1]; broth dilution, strain GC 4556): >64 µg/mL
- MIC Enterococcus faecium (GC 4557) ([1]; broth dilution, strain GC 4557): 16 µg/mL
- MIC Enterococcus avium (GC 4558) ([1]; broth dilution, strain GC 4558): >0.5 µg/mL
- MIC Enterococcus faecalis (GC 6189) ([1]; broth dilution, strain GC 6189): >0.5 µg/mL
- MIC Escherichia coli (ATCC 25922) ([2]; Escherichia coli (ATCC 25922)): >0.5 µg/mL
- MIC Escherichia coli (GC 4559) ([2]; Escherichia coli (GC 4559)): >0.5 µg/mL
- MIC Escherichia coli (GC 4560) ([2]; Escherichia coli (GC 4560)): 0.5 µg/mL
- MIC Coagulase Negative Staphylococcus (GC 4547) ([3]; Coagulase Negative Staphylococcus (GC 4547)): 32 µg/mL
- MIC Coagulase Negative Staphylococcus (GC 4548) ([3]; Coagulase Negative Staphylococcus (GC 4548)): 64 µg/mL
- MIC Coagulase Negative Staphylococcus (GC 4549) ([3]; Coagulase Negative Staphylococcus (GC 4549)): 32 µg/mL
- MIC Coagulase Negative Staphylococcus (GC 4551) ([3]; Coagulase Negative Staphylococcus (GC 4551)): 64 µg/mL
- MIC Coagulase Negative Staphylococcus (GC 6257) ([3]; Coagulase Negative Staphylococcus (GC 6257)): 32 µg/mL
- MIC Staphylococcus aureus (ATCC 29213) ([3]; Staphylococcus aureus (ATCC 29213)): >0.5 µg/mL
- MIC Staphylococcus aureus (GC 1131) ([3]; Staphylococcus aureus (GC 1131)): >0.5 µg/mL
- MIC Staphylococcus aureus (GC 3051) ([3]; Staphylococcus aureus (GC 3051)): 0.5 µg/mL
- MIC Staphylococcus aureus (GC 3053) ([3]; Staphylococcus aureus (GC 3053)): 0.5 µg/mL
- MIC Staphylococcus aureus (GC 4541) ([3]; Staphylococcus aureus (GC 4541)): 0.5 µg/mL
- MIC Staphylococcus aureus (GC 4542) ([3]; Staphylococcus aureus (GC 4542)): 0.5 µg/mL
- MIC Staphylococcus aureus (GC 4544) ([3]; Staphylococcus aureus (GC 4544)): 0.5 µg/mL
- MIC Staphylococcus aureus (GC 4545) ([3]; Staphylococcus aureus (GC 4545)): 0.5 µg/mL
- MIC Staphylococcus aureus-SMITH (GC 4543) ([3]; Staphylococcus aureus-SMITH (GC 4543)): 0.5 µg/mL
- MIC Staphylococcus haemolyticus (GC 4546) ([3]; Staphylococcus haemolyticus (GC 4546)): 32 µg/mL
- MIC Staphylococcus aureus (ATCC 29213) ([3]; broth dilution, strain ATCC 29213): >0.5 µg/mL
- MIC Staphylococcus aureus (GC 1131) ([3]; broth dilution, strain GC 1131): >0.5 µg/mL
- MIC Staphylococcus aureus (GC 3051) ([3]; broth dilution, strain GC 3051): 0.5 µg/mL
- MIC Staphylococcus aureus (GC 3053) ([3]; broth dilution, strain GC 3053): 0.5 µg/mL
- MIC Staphylococcus aureus (GC 4541) ([3]; broth dilution, strain GC 4541): 0.5 µg/mL
- MIC Staphylococcus aureus (GC 4542) ([3]; broth dilution, strain GC 4542): 0.5 µg/mL
- MIC Staphylococcus aureus-SMITH (GC 4543) ([3]; broth dilution, strain GC 4543): 0.5 µg/mL
- MIC Staphylococcus aureus (GC 4544) ([3]; broth dilution, strain GC 4544): 0.5 µg/mL
- MIC Staphylococcus aureus (GC 4545) ([3]; broth dilution, strain GC 4545): 0.5 µg/mL
- MIC Staphylococcus haemolyticus (GC 4546) ([3]; broth dilution, strain GC 4546): 32 µg/mL
- MIC Coagulase Negative Staphylococcus (GC 4547) ([3]; broth dilution, strain GC 4547): 32 µg/mL
- MIC Coagulase Negative Staphylococcus (GC 4548) ([3]; broth dilution, strain GC 4548): 64 µg/mL
- MIC Coagulase Negative Staphylococcus (GC 4549) ([3]; broth dilution, strain GC 4549): 32 µg/mL
- MIC Coagulase Negative Staphylococcus (GC 4551) ([3]; broth dilution, strain GC 4551): 64 µg/mL
- MIC Coagulase Negative Staphylococcus (GC 6257) ([3]; broth dilution, strain GC 6257): 32 µg/mL
- MIC Streptococcus agalactiae (GC 4564) ([4]; Streptococcus agalactiae (GC 4564)): 32 µg/mL
- MIC Streptococcus pneumoniae (GC 4565) ([4]; Streptococcus pneumoniae (GC 4565)): 16 µg/mL
- MIC Streptococcus pyogenes (GC 4563) ([4]; Streptococcus pyogenes (GC 4563)): 16 µg/mL
- MIC Streptococcus pyogenes (GC 4563) ([4]; broth dilution, strain GC 4563): 16 µg/mL
- MIC Streptococcus agalactiae (GC 4564) ([4]; broth dilution, strain GC 4564): 32 µg/mL
- MIC Streptococcus pneumoniae (GC 4565) ([4]; broth dilution, strain GC 4565): 16 µg/mL
